Data on 23 molecules can be found in US20150141411A1, “SUBSTITUTED 3,4-DIHYDRO-2H-PYRIDO[1,2-A]PYRAZINE-1,6-DIONE DERIVATIVES USEFUL FOR THE TREATMENT OF (INTER ALIA) ALZHEIMER'S DISEASE” (Janssen Pharmaceuticals, Inc., priority 2012, published 2015).

For experiment [1], the system named is Aβ38. The experiment can be described thus: In vivo efficacy: brain soluble Aβ38 in non-transgenic rodents (MSD electrochemiluminescence multiplex). The arrangement: species or system mouse. Conditions: dose 30 mg/kg oral dosing, brain soluble fraction, animals sacrificed after 4 h; for response vs control in vivo at 30 mg/kg: Mus musculus, po, 4 h, untreated animals (Ctrl) set at 100, read-out: Aβ38 (% vs Ctrl)_Mean. The text has this:
To determine whether acute administration of an Aβ38 increasing agents would increase Aβ38 levels in vivo, non-transgenic rodents, e.g. mice or rats were used. Animals treated with the Aβ38 increasing agents were examined and compared to those untreated or treated with vehicle and brain levels of soluble Aβ42, Aβ40, Aβ38, and Aβ37 were quantitated by MSD electrochemiluminescence detection technology. Treatment periods varied from hours (h) to days and were adjusted based on the results of the Aβ38 increase once a time course of onset of effect could be established.
A typical protocol for measuring Aβ38 increase in vivo is shown but it is only one of many variations that could be used to optimize the levels of detectable Aβ. For example, Aβ38 increasing agents were formulated in 20% of Captisol® (a sulfobutyl ether of β-cyclodextrin) in water or 20% hydroxypropyl βcyclodextrin. The Aβ38 increasing agents were administered as a single oral dose or by any acceptable route of administration to overnight fasted animals. After 4 h, the animals were sacrificed and Aβ38 levels were analysed.
(§1) Blood was collected by decapitation and exsanguinations in EDTA-treated collection tubes. Blood was centrifuged at 1900 g for 10 minutes (min) at 4° C. and the plasma recovered and flash frozen for later analysis. The brain was removed from the cranium and hindbrain. The cerebellum was removed and the left and right hemisphere were separated. The left hemisphere was stored at −18° C. for quantitative analysis of test compound levels. The right hemisphere was rinsed with phosphate-buffered saline (PBS) buffer and immediately frozen on dry ice and stored at −80° C. until homogenization for biochemical assays.
(§2) Mouse brains from non-transgenic animals were resuspended in 8 volumes of 0.4% DEA (diethylamine)/50 mM NaCl containing protease inhibitors (Roche-11873580001 or 04693159001) per gram of tissue, e.g. for 0.158 g brain, add 1.264 ml of 0.4% DEA. All samples were homogenized in the FastPrep-24 system (MP Biomedicals) using lysing matrix D (MPBio #6913-100) at 6 m/s for 20 seconds. Homogenates were centrifuged at 20800×g for 5 min and supernatants collected. Supernatants were centrifuged at 221.300×g for 50 min. The resulting high speed supernatants were then transferred to fresh eppendorf tubes. Nine parts of supernatant were neutralized with 1 part 0.5 M Tris-HCl pH 6.8 and used to quantify Aβ.
(§3) To quantify the amount of Aβ42, Aβ40, Aβ38, and Aβ37 in the soluble fraction of the brain homogenates, simultaneous specific detection of Aβ42, Aβ40, Aβ38, and Aβ37 was performed using MSD's electro-chemiluminescence multiplex detection technology. In this assay purified monoclonal antibodies specific for Abeta37 (JRD/Aβ37/3), Abeta38 (J&JPRD/Aβ38/5), Abeta40 (JRF/cAβ40/28), and Abeta42 (JRF/cAβ42/26) were coated on MSD 4-plex plates. Briefly, the standards (a dilution of synthetic Aβ42, Aβ40, Aβ38, and Aβ37) were prepared in 1.5 ml Eppendorf tube in Ultraculture, with final concentrations ranging from 10000 to 0.3 pg/m. The samples and standards were co-incubated with Sulfo-tag labelled JRF/rAβ/2 antibody to the N-terminus of Aβ as detector antibody. 50 μl of conjugate/sample or conjugate/standards mixtures were then added to the antibody-coated plate. The plate was allowed to incubate overnight at 4° C. in order to allow formation of the antibody-amyloid complex. Following this incubation and subsequent wash steps the assay was finished by adding read buffer according to the manufacturer's instructions (MesoScale Discovery, Gaitherburg, Md.).
(§4) The SULFO-TAG emits light upon electrochemical stimulation initiated at the electrode. MSD Sector instrument SI6000 was used for signal read-out.
In this model a Aβ38 increase compared to untreated animals would be advantageous, in particular a Aβ38 increase with at least 10%, more in particular a Aβ38 increase with at least 20%. […]

Experiment [2] deals with Aβ40. The experiment can be described thus: In vivo efficacy: brain soluble Aβ40 in non-transgenic rodents (MSD electrochemiluminescence multiplex). Set-up: species or system mouse. The conditions noted are these: dose 30 mg/kg oral dosing, brain soluble fraction, animals sacrificed after 4 h; for response vs control in vivo at 30 mg/kg: Mus musculus, po, 4 h, untreated animals (Ctrl) set at 100, read-out: Aβ40 (% vs Ctrl)_Mean; for Aβ40 (% vs Ctrl)_Mean: untreated animals (Ctrl) set at 100, 30 mg/kg.
Source text: To determine whether acute administration of an Aβ42 lowering agent would reduce Aβ42 levels in vivo, non-transgenic rodents, e.g. mice or rats were used. Animals treated with the Aβ42 lowering agent were examined and compared to those untreated or treated with vehicle and brain levels of soluble Aβ42, Aβ40, Aβ38, and Aβ37 were quantitated by Meso Scale Discovery's (MSD) electrochemiluminescence detection technology. Treatment periods varied from hours (h) to days and were adjusted based on the results of the Aβ42 lowering once a time course of onset of effect could be established.
A typical protocol for measuring Aβ42 lowering in vivo is shown but it is only one of many variations that could be used to optimize the levels of detectable Aβ. For example, Aβ42 lowering compounds were formulated in 20% of Captisol® (a sulfo-butyl ether of β-cyclodextrin) in water or 20% hydroxypropyl βcyclodextrin. The Aβ42 lowering agents were administered as a single oral dose or by any acceptable route of administration to overnight fasted animals. After 4 h, the animals were sacrificed and Aβ42 levels were analysed.
as §1, §2
as §3, with “(Meso Scale” for “(MesoScale”
as §4
The results are shown in Table 5 (dose 30 mg/kg oral dosing) (value for untreated animals as control (Ctrl) was set at 100): […]

In the case of `Cc1cn(-c2ccc3n(c2=O)CC(C)N(C(C)c2cn(C)c4cc(F)c(Cl)cc24)C3=O)cn1` (single isomer, unassigned) [compound 189], the response vs control in vivo at 30 mg/kg worked out at 116% in experiment [1] and 118% in experiment [2].

For the molecule `Cc1cn(-c2ccc3n(c2=O)CC(C)N(C(C)c2cc(C(F)(F)F)cc(C(F)(F)F)c2)C3=O)cn1.Cl` (single isomer, unassigned) [compound 112], the “Aβ38 (% vs Ctrl)_Mean” value in experiment [1] (untreated animals (Ctrl) set at 100, 30 mg/kg) is given as 153 % vs Ctrl. Moreover, in experiment [2], the “Aβ40 (% vs Ctrl)_Mean” value was found to be 82 % vs Ctrl.

For `Cc1cn(-c2ccc3n(c2=O)C[C@@H](C)N(Cc2ccc(F)c(F)c2)C3=O)cn1` [compound 133], the values for the response vs control in vivo at 30 mg/kg in experiment [1] and in experiment [2] were 84% and 77%, respectively.

For `Cc1cn(-c2ccc3n(c2=O)C[C@@H](C)N(Cc2cc(OC(C)C)nc(C(F)(F)F)c2)C3=O)cn1` [compound 128], the response vs control in vivo at 30 mg/kg in experiment [1] was determined as 162%; in experiment [2] it was 116%.

As to `Cc1cn(-c2ccc3n(c2=O)C[C@@H](C)N(CCc2cc(C(F)(F)F)cc(C(F)(F)F)c2)C3=O)cn1` [compound 50], the response vs control in vivo at 30 mg/kg in experiment [1] amounted to 160%; in experiment [2], 112%.

Turning to `Cc1cn(-c2ccc3n(c2=O)CC(C)N(C(C)c2cn(C(C)C)c4cc(F)c(Cl)cc24)C3=O)cn1` (single isomer, unassigned) [compound 194], the response vs control in vivo at 30 mg/kg in experiment [1] is 197%; in experiment [2], 43%.

On to `C[C@@H]1Cn2c(ccc(-n3cnc(Cl)c3)c2=O)C(=O)N1Cc1cc(C(F)(F)F)cc(C(F)(F)F)c1` [compound 118], for which the response vs control in vivo at 30 mg/kg in experiment [1] is 140%; in experiment [2], 115%.

In the case of `CCC(c1cc(OC)cc(C(F)(F)F)c1)N1C(=O)c2ccc(-n3cnc(C)c3)c(=O)n2C[C@H]1C` (single isomer, unassigned) [compound 141], the response vs control in vivo at 30 mg/kg was 145% in experiment [1] and 122% in experiment [2].

As to `Cc1cn(-c2cc(F)c3n(c2=O)C[C@@H](C)N(Cc2cc(C(F)(F)F)cc(C(F)(F)F)c2)C3=O)cn1` [compound 158], the response vs control in vivo at 30 mg/kg in experiment [1] worked out at 120%; in experiment [2], 98%.

`Cc1cn(-c2ccc3n(c2=O)CCN(C(C)c2cn(C)c4cc(F)c(Cl)cc24)C3=O)cn1` (single isomer, unassigned) [compound 185]: the response vs control in vivo at 30 mg/kg was 170% in experiment [1] and 89% in experiment [2].

Consider `Cc1cn(-c2ccc3n(c2=O)C[C@@H](C)N(Cc2cc(CC4CC4)cc(C(F)(F)F)c2)C3=O)cn1` [compound 110], for which the response vs control in vivo at 30 mg/kg in experiment [1] was found to be 102%; in experiment [2], 103%.

As to `Cc1cn(-c2ccc3n(c2=O)C[C@@H](C)N(Cc2c[nH]c4cc(F)c(Cl)cc24)C3=O)cn1` [compound 195], the response vs control in vivo at 30 mg/kg amounted to 123% in experiment [1] and 135% in experiment [2].

On to `Cc1cn(-c2ccc3n(c2=O)CC(C)N(Cc2cc(C(F)(F)F)cc(C(F)(F)F)c2)C3=O)cn1` (stereo not shown) [compound 3], for which the response vs control in vivo at 30 mg/kg in experiment [1] is 133%; in experiment [2] it was 85%.

For `Cc1cn(-c2ccc3n(c2=O)C[C@@H](C)N(Cc2cc(CC(F)(F)F)cc(C(F)(F)F)c2)C3=O)cn1` [compound 134], the response vs control in vivo at 30 mg/kg amounted to 138% in experiment [1] and 115% in experiment [2].

For the molecule `CCn1cc(C(C)N2C(=O)c3ccc(-n4cnc(C)c4)c(=O)n3CC2C)c2cc(Cl)c(F)cc21` (single isomer, unassigned) [compound 192], the response vs control in vivo at 30 mg/kg in experiment [1] came out at 147%; in experiment [2] it was 44%.

For `Cc1cn(-c2ccc3n(c2=O)C[C@@H](C)N(Cc2cc(Br)cc(C(F)(F)F)c2)C3=O)cn1` [compound 145], the figures for the response vs control in vivo at 30 mg/kg in experiment [1] and in experiment [2] were 102% and 92%, respectively.

Consider `Cc1cn(-c2ccc3n(c2=O)C[C@@H](C)N(Cc2cc(OC(F)(F)F)cc(C(F)(F)F)c2)C3=O)cn1` [compound 140], for which the response vs control in vivo at 30 mg/kg in experiment [1] amounted to 96%; in experiment [2], 71%.

Consider `Cc1cn(-c2ccc3n(c2=O)C[C@@H](C)N(Cc2cc(C4CC4)cc(C(F)(F)F)c2)C3=O)cn1` [compound 116], for which the values for the response vs control in vivo at 30 mg/kg in experiment [1] and in experiment [2] were 182% and 105%, respectively.

In the case of `CCOc1cc(C(C)N2C(=O)c3ccc(-n4cnc(C)c4)c(=O)n3C[C@H]2C)cc(C(F)(F)F)c1` (single isomer, unassigned) [compound 143], the response vs control in vivo at 30 mg/kg in experiment [1] was found to be 122%; in experiment [2], 129%.

`Cc1cn(-c2ccc3n(c2=O)C[C@@H](C)N(Cc2cc(OCC(F)(F)F)cc(C(F)(F)F)c2)C3=O)cn1` [compound 166]: the response vs control in vivo at 30 mg/kg in experiment [1] is 127%; in experiment [2] it was 107%.

For `Cc1cn(-c2ccc3n(c2=O)CC(C)N(C(C)c2cc(C(F)(F)F)cc(C(F)(F)F)c2)C3=O)cn1.Cl` (single isomer, unassigned) [compound 111], in experiment [1], the response vs control in vivo at 30 mg/kg stood at 136%. Also, the “Aβ40 (% vs Ctrl)_Mean” value in experiment [2] is listed as 52 % vs Ctrl.

Regarding `Cc1cn(-c2ccc3n(c2=O)CC(C)N(Cc2cc(OCC4CC4)cc(C(F)(F)F)c2)C3=O)cn1.Cl` (stereo not shown) [compound 6], the response vs control in vivo at 30 mg/kg in experiment [1] was 118%; in experiment [2], 108%.

On to `Cc1cn(-c2ccc3n(c2=O)C[C@@H](C)N(Cc2cc(N4CCOC(C(F)(F)F)C4)cc(C(F)(F)F)c2)C3=O)cn1` (mixture of isomers) [compound 153], for which the response vs control in vivo at 30 mg/kg in experiment [1] turned out to be 108%; in experiment [2] it was 128%.
